“Also recorded” adds a separate entry of the source. Where two headings read alike, the source gives them in different places. Values belong to the compound of their own block, whether it stands above or below them.
What was measured:
[1] = Thermal Gravimetric Analysis (TGA) weight loss; format: physicochemical; conditions: heated 10° C./min under dry nitrogen
Description: TGA data were collected for each of the forms using a Q500 Thermogravimetric Analyzer (TA Instruments, 109 Lukens Drive, New Castle, Del. 19720), which uses as its control software Advantage for QW-Series, version 1.0.0.78, Thermal Advantage Release 2.0, © 2001 (TA instruments—Waters LLC). An aliquot of the sample was transferred into a platinum sample pan (Pan part # 952019.906; TA Instruments, 109 Lukens Drive, New Castle, Del. 19720). The pan was placed on the loading platform and was then automatically loaded in to the apparatus using the control software. Thermograms were typically obtained by individually heating the sample at 10° C./min from 25° C. to 300° C. under flowing dry nitrogen (compressed nitrogen, grade 4.8, BOC Gases, 575 Mountain Avenue, Murray Hill, N.J. 07974-2082), with a sample purge flow rate of 60 ml/min and a balance purge flow rate of 40 ml/min. Thermal transitions (weight changes) were viewed and analyzed using the analysis software Universal Analysis 2000 for Windows 95/95/2000/NT, version 3.1E; Build 3.1.0.40, © 1991–2001 (TA instruments—Waters LLC), provided with the instrument.
Using the DSC and TGA data obtained for Ritonavir Forms III, IV, and V, and published data for Forms I and II, the different thermal characteristics of each of the forms of Ritonavir were determined. These characteristics are provided below in Table 1: […]

[2] = Conversion of solid form on contact with aqueous media; format: physicochemical
Description: Ritonavir(IV) can be prepared from Ritonavir(III). In a particular method, Ritonavir(III) is contacted with an aqueous medium for an amount of time sufficient to effect the change. For example, Ritonavir(III) placed on a vacuum filter can be washed with deionized water, thereby providing Ritonavir(IV).

[3] = Conversion of solid form when left in the crystallization mixture; format: physicochemical
Experimental: In particular: (A) is a representative X-ray diffraction pattern of Ritonavir(I); (B) is an X-ray diffraction pattern of a sample of Ritonavir(V) after being left in the crystallization mixture for approximately 16 hours, with arrows indicating peaks that signify the presence of Ritonavir(I); and (C) is a representative X-ray diffraction pattern of Ritonavir(V). […] In particular: (A) provides a DSC trace of Ritonavir(I); (B) provides a DSC trace of a sample of Ritonavir(V) after being left in the crystallization mixture for approximately 16 hours, wherein two peaks are observed corresponding to Forms I and V; and (C) is a representative DSC trace of Ritonavir(V). Ritonavir(V) is readily prepared from solvent systems (e.g., binary solvent systems) comprised of an acetate and acetonitrile. In particular, it was discovered that after Ritonavir is dissolved in such a solvent system at an elevated temperature (e.g., about 70° C.), the slow cooling of the resulting mixtures (e.g., at a rate of about 5° C./minute until a temperature of about 5° C. is reached) typically yields crystals of Ritonavir(V), which can be isolated by filtration and optionally dried by air. Specific solvent systems comprise from about 25 to about 50 volume percent acetonitrile.

[4] = data for Forms I and II obtained from Chemburkar; cited from earlier work
[5] = crystalline form, oral; cited from earlier work

Compound: CC(C)c1nc(CN(C)C(=O)N[C@H](C(=O)N[C@@H](Cc2ccccc2)C[C@H](O)[C@H](Cc2ccccc2)NC(=O)OCc2cncs2)C(C)C)cs1 (relative stereo) [Form III, 10-hydroxy-2-methyl-5-(1-methylethyl)-1-[2-(1-methylethyl)-4-thiazolyl]-3,6-dioxo-8,11-bis(phenylmethyl)-2,4,7,12-tetraazatridecan-13-oic acid, 5-thiazolylmethyl ester, [5S-(5R*,8R*,10R*,11R*)]]
TGA % weight loss (up to 130° C.) ([1]; listed as III): 30—60%
form conversion while washed or incubated in aqueous media (DSC trace, FIG. 17) ([2]; washed or incubated in aqueous media): conversion of Ritonavir Form III to Form IV, and subsequently to Form I

Compound: CC(C)c1nc(CN(C)C(=O)N[C@H](C(=O)N[C@@H](Cc2ccccc2)C[C@H](O)[C@H](Cc2ccccc2)NC(=O)OCc2cncs2)C(C)C)cs1 (single isomer, unassigned) [Form I, 10-hydroxy-2-methyl-5-(1-methylethyl)-1-[2-(1-methylethyl)-4-thiazolyl]-3,6-dioxo-8,11-bis(phenylmethyl)-2,4,7,12-tetraazatridecan-13-oic acid, 5-thiazolylmethyl ester, [5S-(5R*,8R*,10R*,11R*)]]
TGA % weight loss (up to 130° C.) [4]: <0.3%
bioavailability [5]: not bioavailable; also recorded: poor bioavailability

Compound: CC(C)c1nc(CN(C)C(=O)N[C@H](C(=O)N[C@@H](Cc2ccccc2)C[C@H](O)[C@H](Cc2ccccc2)NC(=O)OCc2cncs2)C(C)C)cs1 (single isomer, unassigned) [Form II, 10-hydroxy-2-methyl-5-(1-methylethyl)-1-[2-(1-methylethyl)-4-thiazolyl]-3,6-dioxo-8,11-bis(phenylmethyl)-2,4,7,12-tetraazatridecan-13-oic acid, 5-thiazolylmethyl ester, [5S-(5R*,8R*,10R*,11R*)]]
TGA % weight loss (up to 130° C.) [4]: <0.3%
bioavailability [5]: poor bioavailability

Further lines, with some results ahead:

TGA % weight loss (up to 130° C.) ([1]; listed as IV): 4—9%
form conversion on exposure to an aqueous environment ([2]; aqueous environment, extended time, about 15 to about 60 minutes): converts to Ritonavir Form I
Compound: CC(C)c1nc(CN(C)C(=O)N[C@H](C(=O)N[C@@H](Cc2ccccc2)C[C@H](O)[C@H](Cc2ccccc2)NC(=O)OCc2cncs2)C(C)C)cs1 (relative stereo) [Form IV, 10-hydroxy-2-methyl-5-(1-methylethyl)-1-[2-(1-methylethyl)-4-thiazolyl]-3,6-dioxo-8,11-bis(phenylmethyl)-2,4,7,12-tetraazatridecan-13-oic acid, 5-thiazolylmethyl ester, [5S-(5R*,8R*,10R*,11R*)]]
form conversion on prolonged exposure to an aqueous environment ([2]; prolonged exposure to aqueous environment): converts the compound to Ritonavir Form II

form conversion when left in crystallization mixture (X-ray diffraction, DSC) ([3]; approximately 16 hours at nucleation temperature of 5° C.): formed Ritonavir(I)
TGA % weight loss (up to 130° C.) ([1]; listed as V): <0.3%
Compound: CC(C)c1nc(CN(C)C(=O)N[C@H](C(=O)N[C@@H](Cc2ccccc2)C[C@H](O)[C@H](Cc2ccccc2)NC(=O)OCc2cncs2)C(C)C)cs1 (relative stereo) [Form V, 10-hydroxy-2-methyl-5-(1-methylethyl)-1-[2-(1-methylethyl)-4-thiazolyl]-3,6-dioxo-8,11-bis(phenylmethyl)-2,4,7,12-tetraazatridecan-13-oic acid, 5-thiazolylmethyl ester, [5S-(5R*,8R*,10R*,11R*)]]
form conversion on prolonged time in crystallization mixture ([3]; prolonged period of time (hours to days), listed as Ritonavir(V)): form a mixture of Forms V and I; also recorded: provides Ritonavir Form I

Source: patent publication US7205413B2, “Solvates and polymorphs of ritonavir and methods of making and using the same” (TransForm Pharmaceuticals, Inc., priority 2002, dated 2007)
